Results taken from US8232305B2, “Anti-microbial compositions” (BASF SE, priority 2006, dated 2012).

Key:
[1] = tested on: cocci, rods and fungi; conditions: Pernak et al., 226th ACS National Meeting 2003; cited from earlier work
[2] = Formulation of stable w/o or o/w emulsions; assay type: physicochemical; conditions: comparable concentrations (0.5% w/w) in the w/o and o/w emulsions of Example 10
[3] = tested on: C. albicans; experiment: Preservative challenge test in cosmetic emulsions (EurPh and USP); assay type: cell-based; conditions: 0.5% w/w
Description: (§1) A preservative challenge test is conducted for representative cosmetic formulations according to the conditions of the EurPh and USP. The compound concentration in the formulations is 0.5% w/w. The Inoculum concentration of the five different strains is 2.1-4.2×10^5 cfu/ml, incubation time according to EurPh. 2, 7, 14 and 28 days. Preservation is investigated in two different emulsion types, w/o and o/w.

[4] = tested on: S. aureus; experiment: as above; assay type: cell-based; conditions: 0.5% w/w
Description: as §1

[5] = tested on: E. coli; experiment: as above; assay type: cell-based; conditions: 0.5% w/w
Description: as §1

[6] = tested on: A. niger; experiment: as above; assay type: cell-based; conditions: 0.5% w/w
Description: as §1

[7] = tested on: P. aerug.; experiment: as above; assay type: cell-based; conditions: 0.5% w/w
Description: as §1

[8] = tested on: Escherichia coli; experiment: Microbicidal activity according to EN1040; assay type: cell-based; conditions: 1000 ppm, room temperature, vs growth control in water
Description: (§2) A bacterial suspension with a cell count of about 10^7 cfu/ml is contacted with appropriate concentrations of the specific substances and the residual cell count determined after incubation times of 5 and 30 minutes at room temperature under continuous stirring. Staphylococcus aureus was tested as gram+ and Escherichia coli as gram− organism. The results are given as a log reduction in comparison to a growth control in water.

[9] = tested on: Staphylococcus aureus; experiment: Microbicidal activity according to EN1040; assay type: cell-based; conditions: 1000 ppm, room temperature, vs growth control in water
Description: as §2

[10] = tested on: Penicillium funiculosum; experiment: Fungicidal activity according to EN12175; assay type: cell-based; conditions: spores about 10^6 cfu/ml, vs water control
Description: (§3) Fungicidal activity is tested according to EN12175. A fungal spore suspension with a spore cell count of about 10^6 cfu/ml is contacted with appropriate concentrations of the specific substances and the residual spore cell count determined after incubation times of 30 and 60 minutes at room temperature under continuous stirring. Penicillium funiculosum, Aspergillus niger and Aureobasidium pullulans are tested as important mold strains. The results are given as a log reduction at each incubation time in comparison to a water control.

[11] = tested on: Aureobasidium pullulans; experiment: Fungicidal activity according to EN12175; assay type: cell-based; conditions: spores about 10^6 cfu/ml, vs water control
Description: as §3

[12] = tested on: Aspergillus niger; experiment: Fungicidal activity according to EN12175; assay type: cell-based; conditions: spores about 10^6 cfu/ml, vs water control
Description: as §3

[13] = tested on: A. niger ATCC 16404; experiment: Microbicidal activity under conditions similar to a preservative challenge test; assay type: cell-based; conditions: 0.5%, inoculum 10^5 cfu/ml
Description: as §2
(§4) The test procedure of Example 7 is used, with an inoculum concentration of 10^5 cfu/ml and incubation times of 48 and 72 hours; figures given as log reduction.

[14] = tested on: E. coli ATCC 10536; experiment: as above; assay type: cell-based; conditions: 0.5%, inoculum 10^5 cfu/ml
Description: as §2, §4

[15] = tested on: S. aureus ATCC 6538; experiment: as above; assay type: cell-based; conditions: 0.5%, inoculum 10^5 cfu/ml
Description: as §2, §4

[16] = tested on: P. aeruginosa ATCC 15442; experiment: as above; assay type: cell-based; conditions: 0.5%, inoculum 10^5 cfu/ml
Description: as §2, §4

[17] = tested on: C. albicans ATCC 10231; experiment: as above; assay type: cell-based; conditions: 0.5%, inoculum 10^5 cfu/ml
Description: as §2, §4

Q: With `CCCCCCCCOC[n+]1ccn(C)c1.F[B-](F)(F)F` [1-methyl-3-octyloxymethylimidazolium tetrafluoroborate] as the molecule, how does the “effectiveness against cocci, rods and fungi” value [1] read?
A: the most effective of the ionic liquids tested

Q: For benzalkonium chloride, which “stability of w/o or o/w emulsions formulated with the agent” value [2] is on record?
A: No stable w/o or o/w emulsions could be formulated

Q: What does the source list for `CCCCCCCCOC(=O)C[n+]1ccn(C)c1.[Br-]` [Ex 2, 1-methyl-3-(2-oxo-2-octyloxyethyl)-1H-Imidazolium bromide]?
A: Log Reduction C. albicans ([3]; O/W emulsion, 2 days): 0 log; Log Reduction C. albicans ([3]; O/W emulsion, 7 days): 2 log; Log Reduction C. albicans ([3]; O/W emulsion, 14 days): ≧3 log; Log Reduction C. albicans ([3]; O/W emulsion, 28 days): 5 log; Log Reduction C. albicans ([3]; W/O emulsion, 2 days): 1 log; Log Reduction C. albicans ([3]; W/O emulsion, 7 days): ≧3 log; Log Reduction C. albicans ([3]; W/O emulsion, 14 days): 5 log; Log Reduction C. albicans ([3]; W/O emulsion, 28 days): 5 log; Log Reduction S. aureus ([4]; O/W emulsion, 2 days): ≧4 log; Log Reduction S. aureus ([4]; O/W emulsion, 7 days): 6 log; Log Reduction S. aureus ([4]; O/W emulsion, 14 days): 6 log; Log Reduction S. aureus ([4]; O/W emulsion, 28 days): 6 log; Log Reduction S. aureus ([4]; W/O emulsion, 2 days): 6 log; Log Reduction S. aureus ([4]; W/O emulsion, 7 days): 6 log; Log Reduction S. aureus ([4]; W/O emulsion, 14 days): 6 log; Log Reduction S. aureus ([4]; W/O emulsion, 28 days): 6 log; Log Reduction E. coli ([5]; O/W emulsion, 2 days): 3 log; Log Reduction E. coli ([5]; O/W emulsion, 7 days): ≧4 log; Log Reduction E. coli ([5]; O/W emulsion, 14 days): 6 log; Log Reduction E. coli ([5]; O/W emulsion, 28 days): 6 log; Log Reduction E. coli ([5]; W/O emulsion, 2 days): 6 log; Log Reduction E. coli ([5]; W/O emulsion, 7 days): 6 log; Log Reduction E. coli ([5]; W/O emulsion, 14 days): 6 log; Log Reduction E. coli ([5]; W/O emulsion, 28 days): 6 log; Log Reduction A. niger ([6]; O/W emulsion, 2 days): 0 log; Log Reduction A. niger ([6]; O/W emulsion, 7 days): 0 log; Log Reduction A. niger ([6]; O/W emulsion, 14 days): 0 log; Log Reduction A. niger ([6]; O/W emulsion, 28 days): 0 log; Log Reduction A. niger ([6]; W/O emulsion, 2 days): 0 log; Log Reduction A. niger ([6]; W/O emulsion, 7 days): 0 log; Log Reduction A. niger ([6]; W/O emulsion, 14 days): 0 log; Log Reduction A. niger ([6]; W/O emulsion, 28 days): 0 log; Log Reduction P. aerug. ([7]; O/W emulsion, 2 days): ≧4 log; Log Reduction P. aerug. ([7]; O/W emulsion, 7 days): 5 log; Log Reduction P. aerug. ([7]; O/W emulsion, 14 days): 5 log; Log Reduction P. aerug. ([7]; O/W emulsion, 28 days): 5 log; Log Reduction P. aerug. ([7]; W/O emulsion, 2 days): 5 log; Log Reduction P. aerug. ([7]; W/O emulsion, 7 days): 5 log; Log Reduction P. aerug. ([7]; W/O emulsion, 14 days): 5 log; Log Reduction P. aerug. ([7]; W/O emulsion, 28 days): 5 log; log reduction E. coli 5 min. ([8]; 5 min): <1 log; log reduction E. coli 30 min. ([8]; 30 min): 1.2 log; log reduction S. aureus 5 min. ([9]; 5 min): 3.2 log; log reduction S. aureus 30 min. ([9]; 30 min): 3.7 log; log reduction P. funiculosum 30 min ([10]; 1%, 30 min): <1 log; log reduction P. funiculosum 1 h ([10]; 1 h): <1 log; log reduction A. pullulans 30 min ([11]; 1%, 30 min): >4 log; log reduction A. pullulans 1 h ([11]; 1 h): >4 log; log reduction A. niger 30 min ([12]; 1%, 30 min): <1 log; log reduction A. niger 1 h ([12]; 1 h): 2.0 log; log reduction A. niger ATCC 16404 48 h ([13]; 48 h): 1.8 log; log reduction A. niger ATCC 16404 72 h ([13]; 72 h): 2.3 log; log reduction E. coli ATCC 10536 48 h ([14]; 48 h): >3 log; log reduction E. coli ATCC 10536 72 h ([14]; 72 h): >3 log; log reduction S. aureus ATCC 6538 48 h ([15]; 48 h): >3 log; log reduction S. aureus ATCC 6538 72 h ([15]; 72 h): >3 log; log reduction P. aeruginosa ATCC 15442 48 h ([16]; 48 h): >3 log; log reduction P. aeruginosa ATCC 15442 72 h ([16]; 72 h): >3 log; log reduction C. albicans ATCC 10231 48 h ([17]; 48 h): >3 log; log reduction C. albicans ATCC 10231 72 h ([17]; 72 h): >3 log
